Experimental data as given in patent publication US20220281848A1, “PYRAZOLE-SUBSTITUTED PYRROLIDINONES AS HERBICIDES” (FMC Corporation, priority 2019, published 2022).

System: plants
Assay: Test D pre-emergence, other plants of Tables D1 and D3
Assay type: in vivo
Settings: pre-emergence, 100=total damage, 0=no damage
Procedure: A formulation containing 50 g/L of the test chemical was prepared by dissolving the active ingredient in a mixture of organic solvents and emulsifier, details of which are provided in the table. This formulation was then mixed with a small, variable amount of acetone to aid dissolution, before addition of a 0.2% v/v aqueous solution of an adjuvant, as the aqueous diluent, to form an aqueous spray solution which contains a predetermined concentration of the active ingredient.
This aqueous spray solution was then sprayed onto plants including maize and wheat that had been seed treated with a herbicide safener, after one day's cultivation (for pre-emergence) or after about 12 days' cultivation (for post-emergence). The plants were grown from seeds sown in standard soil, placed in a glasshouse under controlled conditions (at 24/18° C. or 20/16° C., day/night; 16 h light; 65% humidity). After spray application the plants were then grown in a glasshouse under the same conditions and watered twice daily. After 15 d for post-emergence and 20 DAA for pre-emergence the test was evaluated (100=total damage to plant; 0=no damage to plant).

CCn1nc([C@H]2CN(C)C(=O)[C@@H]2C(=O)Nc2cccc(F)c2F)c2ccc(F)cc21 [Compound 4]
50: damage to plant, POAAN (rate 130, 20 DAA)
80: damage to plant, POAAN (rate 250, 20 DAA)
0: damage to plant, BEAVA (rate 15, 20 DAA) | damage to plant, BROTE (rate 15, 20 DAA) | damage to plant, BRSNN (rate 15, 20 DAA) | damage to plant, CHEAL (rate 15, 20 DAA) | damage to plant, GALAP (rate 15, 20 DAA) | damage to plant, HORVW (rate 15, 20 DAA) | damage to plant, KCHSC (rate 15, 20 DAA) | damage to plant, LOLPE (rate 15, 20 DAA) | damage to plant, POAAN (rate 15, 20 DAA) | damage to plant, POLCO (rate 15, 20 DAA) | damage to plant, SINAR (rate 15, 20 DAA) | damage to plant, STEME (rate 15, 20 DAA) | damage to plant, VERPE (rate 15, 20 DAA) | damage to plant, ALOMY (rate 30, 20 DAA) | damage to plant, AVEFA (rate 30, 20 DAA) | damage to plant, BEAVA (rate 30, 20 DAA) | damage to plant, BROTE (rate 30, 20 DAA) | damage to plant, BRSNN (rate 30, 20 DAA) | damage to plant, CHEAL (rate 30, 20 DAA) | damage to plant, GALAP (rate 30, 20 DAA) | damage to plant, HORVW (rate 30, 20 DAA) | damage to plant, KCHSC (rate 30, 20 DAA) | damage to plant, LOLPE (rate 30, 20 DAA) | damage to plant, POAAN (rate 30, 20 DAA) | damage to plant, POLCO (rate 30, 20 DAA) | damage to plant, SINAR (rate 30, 20 DAA) | damage to plant, STEME (rate 30, 20 DAA) | damage to plant, VERPE (rate 30, 20 DAA) | damage to plant, ALOMY (rate 60, 20 DAA) | damage to plant, AVEFA (rate 60, 20 DAA) | damage to plant, BEAVA (rate 60, 20 DAA) | damage to plant, BROTE (rate 60, 20 DAA) | damage to plant, BRSNN (rate 60, 20 DAA) | damage to plant, CHEAL (rate 60, 20 DAA) | damage to plant, GALAP (rate 60, 20 DAA) | damage to plant, HORVW (rate 60, 20 DAA) | damage to plant, KCHSC (rate 60, 20 DAA) | damage to plant, LOLPE (rate 60, 20 DAA) | damage to plant, POLCO (rate 60, 20 DAA) | damage to plant, SINAR (rate 60, 20 DAA) | damage to plant, STEME (rate 60, 20 DAA) | damage to plant, VERPE (rate 60, 20 DAA) | damage to plant, ALOMY (rate 130, 20 DAA) | damage to plant, AVEFA (rate 130, 20 DAA) | damage to plant, BEAVA (rate 130, 20 DAA) | damage to plant, BROTE (rate 130, 20 DAA) | damage to plant, BRSNN (rate 130, 20 DAA) | damage to plant, CHEAL (rate 130, 20 DAA) | damage to plant, GALAP (rate 130, 20 DAA) | damage to plant, HORVW (rate 130, 20 DAA) | damage to plant, KCHSC (rate 130, 20 DAA) | damage to plant, LOLPE (rate 130, 20 DAA) | damage to plant, POLCO (rate 130, 20 DAA) | damage to plant, SINAR (rate 130, 20 DAA) | damage to plant, STEME (rate 130, 20 DAA) | damage to plant, VERPE (rate 130, 20 DAA) | damage to plant, ALOMY (rate 250, 20 DAA) | damage to plant, AVEFA (rate 250, 20 DAA) | damage to plant, BEAVA (rate 250, 20 DAA) | damage to plant, BROTE (rate 250, 20 DAA) | damage to plant, BRSNN (rate 250, 20 DAA) | damage to plant, CHEAL (rate 250, 20 DAA) | damage to plant, GALAP (rate 250, 20 DAA) | damage to plant, HORVW (rate 250, 20 DAA) | damage to plant, KCHSC (rate 250, 20 DAA) | damage to plant, LOLPE (rate 250, 20 DAA) | damage to plant, POLCO (rate 250, 20 DAA) | damage to plant, SINAR (rate 250, 20 DAA) | damage to plant, STEME (rate 250, 20 DAA) | damage to plant, VERPE (rate 250, 20 DAA) | damage to plant, BEAVA (rate 500, 20 DAA) | damage to plant, CHEAL (rate 500, 20 DAA) | damage to plant, GALAP (rate 500, 20 DAA) | damage to plant, KCHSC (rate 500, 20 DAA) | damage to plant, LOLPE (rate 500, 20 DAA) | damage to plant, STEME (rate 500, 20 DAA) | damage to plant, VERPE (rate 500, 20 DAA)
90: damage to plant, POAAN (rate 500, 20 DAA)
30: damage to plant, SINAR (rate 500, 20 DAA)
20: damage to plant, HORVW (rate 500, 20 DAA) | damage to plant, POLCO (rate 500, 20 DAA)
10: damage to plant, AVEFA (rate 500, 20 DAA) | damage to plant, BROTE (rate 500, 20 DAA) | damage to plant, BRSNN (rate 500, 20 DAA)
40: damage to plant, POAAN (rate 60, 20 DAA) | damage to plant, ALOMY (rate 500, 20 DAA)
